From PubChem BioAssay AID1963960 (Molecular Pharmacology Branch, DTP, NCI, 2024)

Tested on: MDA-MB-468 spheroids with HUVEC/MSC, viability
Assay: Anticancer human tumor MDA-MB-468 cell line growth inhibition [PI3K];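 further: spheroids exposed to agents for seven days before readout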;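 on viability, T/C: 100% = DMSO vehicle control viability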
Details: for IC50: curve of first compound; for viability, T/C: stronger effect = lower value; active means viability on the fitted dose curve at most 10% of control; inactive means the rest
How it was run: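 Complex 3D spheroids (cancer cells + endothelial HUVEC + mesenchymal stem cells); drug pairs of targeted agent x inavolisib/alpelisib/duvelisib/copanlisib; half-log series from ~Cmax, max 10 microM if Cmax unknown; endpoint viability.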

[1] = second compound 0.0316 µM, first compound 0.0316 µM
[2] = second compound 0.0316 µM, first compound 0.1 µM
[3] = second compound 0.0316 µM, first compound 0.316 µM
[4] = second compound 0.0316 µM, first compound 1 µM
[5] = second compound 0.1 µM, first compound 0.0316 µM
[6] = second compound 0.1 µM, first compound 0.1 µM
[7] = second compound 0.1 µM, first compound 0.316 µM
[8] = second compound 0.1 µM, first compound 1 µM
[9] = second compound 0.316 µM, first compound 0.0316 µM
[10] = second compound 0.316 µM, first compound 0.1 µM
[11] = second compound 0.316 µM, first compound 0.316 µM
[12] = second compound 0.316 µM, first compound 1 µM
[13] = second compound 1 µM, first compound 0.0316 µM
[14] = second compound 1 µM, first compound 0.1 µM
[15] = second compound 1 µM, first compound 0.316 µM
[16] = second compound 1 µM, first compound 1 µM

CCN1CCN(Cc2ccc(Nc3ncc(F)c(-c4cc(F)c5nc(C)n(C(C)C)c5c4)n3)nc2)CC1 + CC(Nc1ccc2c(c1)OCCn1cc(N3C(=O)OCC3C(F)F)nc1-2)C(N)=O
> 1000 nM: IC50 (second compound 0.00316 µM) | IC50 (second compound 0.01 µM) | IC50 (second compound 0.0316 µM) | IC50 (second compound 0.1 µM) | IC50 (second compound 1 µM)
inactive: viability, T/C (second compound 0.00316 µM, first compound 0.00316 µM) 94% | viability, T/C (second compound 0.00316 µM, first compound 0.01 µM) 98.2% | viability, T/C (second compound 0.00316 µM, first compound 0.0316 µM) 91.5% | viability, T/C (second compound 0.00316 µM, first compound 0.1 µM) 103% | viability, T/C (second compound 0.00316 µM, first compound 0.316 µM) 98.9% | viability, T/C (second compound 0.00316 µM, first compound 1 µM) 70.1% | viability, T/C (second compound 0.01 µM, first compound 0.00316 µM) 101% | viability, T/C (second compound 0.01 µM, first compound 0.01 µM) 117% | viability, T/C (second compound 0.01 µM, first compound 0.0316 µM) 83.4% | viability, T/C (second compound 0.01 µM, first compound 0.1 µM) 100% | viability, T/C (second compound 0.01 µM, first compound 0.316 µM) 94.5% | viability, T/C (second compound 0.01 µM, first compound 1 µM) 70.5% | viability, T/C (second compound 0.0316 µM, first compound 0.00316 µM) 103% | viability, T/C (second compound 0.0316 µM, first compound 0.01 µM) 108% | viability, T/C [1] 99.2% | viability, T/C [2] 85.5% | viability, T/C [3] 104% | viability, T/C [4] 59.2% | viability, T/C (second compound 0.1 µM, first compound 0.00316 µM) 106% | viability, T/C (second compound 0.1 µM, first compound 0.01 µM) 95.5% | viability, T/C [5] 99.2% | viability, T/C [6] 105% | viability, T/C [7] 89.4% | viability, T/C [8] 54.3% | viability, T/C (second compound 0.316 µM, first compound 0.00316 µM) 106% | viability, T/C (second compound 0.316 µM, first compound 0.01 µM) 92.7% | viability, T/C [9] 79.9% | viability, T/C [10] 93.3% | viability, T/C [11] 84.6% | viability, T/C [12] 44.2% | viability, T/C (second compound 1 µM, first compound 0.00316 µM) 108% | viability, T/C (second compound 1 µM, first compound 0.01 µM) 81.7% | viability, T/C [13] 88.6% | viability, T/C [14] 88.3% | viability, T/C [15] 88.3% | viability, T/C [16] 51.8%
855 nM: IC50 (second compound 0.316 µM)

Cn1ncc(Cl)c1-c1cc(C(=O)NC(CN)Cc2cccc(F)c2)sc1Cl (centres undefined) + CC(Nc1ncnc2nc[nH]c12)c1cc2cccc(Cl)c2c(=O)n1-c1ccccc1
242 nM: IC50 (second compound 1 µM)
331 nM: IC50 (second compound 0.316 µM)
< 31.6 nM: IC50 (second compound 10 µM)
44.2 nM: IC50 (second compound 3.16 µM)
338 nM: IC50 (second compound 0.1 µM)
293 nM: IC50 (second compound 0.0316 µM)
inactive: viability, T/C [1] 83.2% | viability, T/C [2] 73.1% | viability, T/C [3] 45.6% | viability, T/C [4] 32.3% | viability, T/C (second compound 0.0316 µM, first compound 3.16 µM) 26% | viability, T/C (second compound 0.0316 µM, first compound 10 µM) 17.7% | viability, T/C [5] 84.6% | viability, T/C [6] 65.5% | viability, T/C [7] 50.3% | viability, T/C [8] 35.9% | viability, T/C (second compound 0.1 µM, first compound 3.16 µM) 29.7% | viability, T/C (second compound 0.1 µM, first compound 10 µM) 16.1% | viability, T/C [9] 68.7% | viability, T/C [10] 63.4% | viability, T/C [11] 51.1% | viability, T/C [12] 33.9% | viability, T/C (second compound 0.316 µM, first compound 3.16 µM) 29.1% | viability, T/C (second compound 0.316 µM, first compound 10 µM) 18.6% | viability, T/C [13] 58.4% | viability, T/C [14] 60.1% | viability, T/C [15] 47% | viability, T/C [16] 32.9% | viability, T/C (second compound 1 µM, first compound 3.16 µM) 27.8% | viability, T/C (second compound 1 µM, first compound 10 µM) 17.9% | viability, T/C (second compound 3.16 µM, first compound 0.0316 µM) 51.7% | viability, T/C (second compound 3.16 µM, first compound 0.1 µM) 45.4% | viability, T/C (second compound 3.16 µM, first compound 0.316 µM) 40.8% | viability, T/C (second compound 3.16 µM, first compound 1 µM) 32.6% | viability, T/C (second compound 3.16 µM, first compound 3.16 µM) 25.9% | viability, T/C (second compound 3.16 µM, first compound 10 µM) 20.2% | viability, T/C (second compound 10 µM, first compound 0.0316 µM) 40.4% | viability, T/C (second compound 10 µM, first compound 0.1 µM) 41.6% | viability, T/C (second compound 10 µM, first compound 0.316 µM) 36.3% | viability, T/C (second compound 10 µM, first compound 1 µM) 28% | viability, T/C (second compound 10 µM, first compound 3.16 µM) 23.8% | viability, T/C (second compound 10 µM, first compound 10 µM) 15.5%
